From patent US20110118218A1, “TREATING HYPERTENSION WITH 25-HYDROXYVITAMIN D3” (priority 2008, published 2011)

Experiments:
[1] = cited from earlier work
[2] = Human clinical trial: blood pressure after daily/weekly oral treatment for 4 months; type: in vivo; settings: for Diastolic blood pressure (GLM least square mean) / Systolic blood pressure (GLM least square mean): healthy postmenopausal women, 20 μg per day or 140 μg per week oral, repeated measurement analysis over 13 visits adjusted for baseline blood pressure and time; for Effect on blood pressure (in words): mildly hypertensive subjects, none above 146/95 mmHg
Description: Each group includes five subjects. They are followed for four months in Ziirich, Switzerland during the winter.
Equimolar quantities of both substances were investigated. […] As the maximum pre-existing baseline concentration of 25-hydroxyvitamin D3 will be 50 nmol/L, it is not anticipated that subjects will approach the range where disturbance in Ca^2+ homeostasis has been observed.
Each dosage was consumed orally at breakfast.
For blood pressure assessments a standard protocol was used (OMRON professional apparatus) to measure diastolic and systolic blood pressure in Week 1 on visit 2 (baseline) and the remaining 4 days of Week 1. The assessments continued at each visit of Weeks 2, 3, 5, 7, 9, 11, 13 and 15.
Treatment duration was 4 months.

[3] = 20 μg per day or 140 μg per week, 4 months, 13 visits, adjusted for baseline blood pressure and time
[4] = daily or weekly treatment, identical dosages

C=C1CC[C@H](O)C/C1=C/C=C1\CCC[C@]2(C)[C@@H]([C@H](C)CCCC(C)(C)O)CC[C@@H]12 [25-OH D3, 25-hydroxyvitamin D3]
Blood concentration of 25-hydroxyvitamin D3 at which hypercalcemia may occur ([1]; in vivo): greater than 375 nmol/L | Diastolic blood pressure, change vs. daily/weekly Vitamin D3 [2, 3]: −1.4 mmHg | Systolic blood pressure, change vs. daily/weekly Vitamin D3 [2, 3]: −6.1 mmHg | Reduction of diastolic blood pressure versus Vitamin D3 [2, 4]: 1.4 mmHg | Reduction of systolic blood pressure versus Vitamin D3 [2, 4]: 6.1 mmHg | Diastolic blood pressure (GLM least square mean) ([2]; 4 months): 68.9 mmHg | Systolic blood pressure (GLM least square mean) ([2]; 4 months): 111.1 mmHg | Effect on blood pressure (in words) [2]: very effective reduction of blood pressure

C=C1CC[C@H](O)C/C1=C/C=C1\CCC[C@]2(C)[C@@H]([C@H](C)CCCC(C)C)CC[C@@H]12 [Vitamin D3, cholecalciferol]
Blood concentration of 25-hydroxyvitamin D3 resulting from ingestion as dietary supplement ([1]; ingestion of vitamin D3 at the safe upper level (250 μg/day)): about 200 nmol/L | Diastolic blood pressure (GLM least square mean) ([2]; 4 months): 70.3 mmHg | Systolic blood pressure (GLM least square mean) ([2]; 4 months): 117.2 mmHg | Effect on blood pressure (in words) [2]: no effect
